One series has as its system EMS lesion. To be noted: across the subtypes of EMS; cited from earlier work.
Series [1] has as its system colon cancer cell line (SW480). The class given is cell-based. Here is the method:
(§1) Peptides inhibiting β-catenin cause decreased cell viability in a colon cancer cell line (SW480) and endometriosis lesions excised from a disease animal model. Peptides from libraries described herein are characterized in their effect on cell viability, as measured using a luminescent cell viability assay (Cell Titer-Glo®, Promega, Madison, WI) and expressed as IC50 in Table 5. Peptide inhibitors were tested for their ability to inhibit cellular proliferation across 2 different β-catenin expressing pathogenic cell lines: a colon cancer cell line (SW480) and/or mouse EMS lesion cells derived from mouse model of disease. Both cells lines are naturally known to express high levels of β-catenin. Cell lines were incubated with varying concentrations of peptide concentration and assessed for viability after day 5 and 7 days. The CellTiter-Glo® Luminescent Cell Viability Assay (Promega) is used to detect viable cells. IC50 values are graphed and calculated using Prism software (GraphPad) based on the cell viability readouts. IC50 is used to assess inhibition of cell proliferation by peptide concentration and is used to calculate the inhibitory effect of each peptide across each line. The results are used to assess the therapeutic potency of the peptides. In the SW480 cell line, peptide inhibitors from Family 1 (SEQ ID NO:264) and Family 2 (SEQ ID NO:396) were added daily to the cell growth medium. After 7 days, cell viability was assessed with the Cell-Titer Glo kit (Promega, Madison, WI). […] IC50 was calculated for peptides based on the concentration at which 50% viability was observed (Table 5).

A further series has as its system mouse EMS lesion cells. The series is classed as cell-based. Here is the method: as §1
The target of series [2] is Wnt-responsive promoter (TCF/LEF). As to the kind of experiment: Wnt-dependent luciferase reporter assay. The class given is cell-based, murine. Summed up: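 EC50 (uM) derived from inhibition of luminescence in Wnt3a-stimulated murine 3T3 cells expressing luciferase under a TCF/LEF promoter, with peptides added across a concentration range and vehicle as control.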
On the technique in general: In a reporter assay the amount or activity of a reporter protein is the signal.

In another series the target is T1, β-catenin (Homo sapiens, UniProt P35222).
T1 sequence (P35222 1-781): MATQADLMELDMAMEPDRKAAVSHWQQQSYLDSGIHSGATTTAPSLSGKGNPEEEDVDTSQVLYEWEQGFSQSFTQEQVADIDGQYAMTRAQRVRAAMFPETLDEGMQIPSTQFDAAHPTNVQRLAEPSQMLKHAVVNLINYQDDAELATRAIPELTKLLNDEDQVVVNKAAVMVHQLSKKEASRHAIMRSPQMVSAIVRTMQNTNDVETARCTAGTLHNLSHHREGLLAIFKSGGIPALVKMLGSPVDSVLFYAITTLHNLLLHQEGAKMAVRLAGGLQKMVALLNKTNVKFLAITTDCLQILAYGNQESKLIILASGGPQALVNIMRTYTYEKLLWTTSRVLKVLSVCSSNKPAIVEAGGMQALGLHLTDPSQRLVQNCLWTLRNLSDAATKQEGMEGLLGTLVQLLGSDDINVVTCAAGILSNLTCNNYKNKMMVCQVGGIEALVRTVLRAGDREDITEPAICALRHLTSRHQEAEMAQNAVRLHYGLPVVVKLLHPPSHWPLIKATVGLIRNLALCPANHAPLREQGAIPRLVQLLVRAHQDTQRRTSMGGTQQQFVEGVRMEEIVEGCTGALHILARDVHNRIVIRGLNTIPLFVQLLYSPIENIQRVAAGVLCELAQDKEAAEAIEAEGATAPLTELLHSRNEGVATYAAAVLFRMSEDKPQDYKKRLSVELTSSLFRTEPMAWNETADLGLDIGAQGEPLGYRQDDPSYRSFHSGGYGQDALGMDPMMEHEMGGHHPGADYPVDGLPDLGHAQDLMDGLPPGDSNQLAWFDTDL
Description: KD50 measurement using competitive fluorescence polarization (FP) with labelled TCF4. The class given is binding. To be noted: fluorescence polarization, β-catenin; for Kd: read-out: β-Cat FP KD. Summed up:
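First, β-catenin at 100 nM is mixed with 5 nM labelled TCF4 at room temperature. Next, compound is added across serial dilutions (10 nM to 30 uM). Finally, fluorescence polarization is measured (ex 470 nm, em 520 nm); experiments are done three times.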
For orientation: Fluorescence polarisation rises when a labelled molecule tumbles more slowly, as on binding a larger partner.

The conditions of series [3]: % Viability non-Wnt responsive cells.

Where a SMILES comes first, the peptide text is derived from it.

On to PKF 115-584, for which the EMS lesion progression result with EMS lesion was “successfully reversed”.

In the case of `CCCCCCCCCCCCCCCC(=O)N[C@@H](Cc1c[nH]c2ccccc12)C(=O)N(C)[C@@H](Cc1c[nH]c2ccccc12)C(=O)N[C@@H](CCC(=O)O)C(=O)NC(C)(CO)C(=O)N[C@H](C(=O)N[C@@H](CC(C)C)C(=O)N[C@@H](CC(=O)O)C(=O)N[C@@H](CCC(=O)O)C(=O)N[C@@H](Cc1c[nH]cn1)C(=O)NC(C)(C(=O)N[C@@H](CCC(N)=O)C(=O)N[C@@H](CCCNC(=N)N)C(=O)N[C@H](C(=O)N[C@@H](Cc1c[nH]c2ccccc12)C(=O)NCC(=O)O)C(C)C)C(C)C)[C@@H](C)CC` (single isomer, unassigned) [compound 396], the IC50 – broadly, the concentration at which inhibition is half-maximal – in series [1] came to 2.9 µM; in the series on mouse EMS lesion cells, 15 µM. For the same molecule, the EC50 (in general, the concentration giving half of the maximal effect) in series [2] was 7.5 to 15 µM.

In the case of `CC[C@H](C)[C@@H]1NC(=O)[C@H](CC(C)C)NC(=O)[C@H](Cc2ccccc2)NC(=O)[C@H](Cc2c[nH]c3ccccc23)NC(=O)[C@@H](N)CCCCNC(=O)CC[C@@H](C(=O)N[C@@H](Cc2c[nH]c3ccccc23)C(=O)NCC(=O)O)NC(=O)[C@H](CS)NC1=O` [compound 181] (HELM PEPTIDE1{K.W.F.L.I.C.E.W.G}$PEPTIDE1,PEPTIDE1,1:R3-7:R3$$$V2.0), the “β-Cat FP Hill slope” value at β-catenin is 1.15. Also, the “% Viability non-Wnt responsive cells” value in the series on non-Wnt responsive cells worked out at 89.16%. This molecule also displayed an EC50 in series [2] of over 30 µM.

For the molecule `CCCC[C@@H]1NC(=O)[C@@H](NC(C)=O)CCCCNC(=O)C[C@@H](C(=O)O)NC(=O)[C@H](Cc2c[nH]c3ccccc23)NC(=O)[C@H](C)NC(=O)[C@H](CC)NC(=O)[C@H]([C@@H](C)CC)NC(=O)[C@H](CC(C)C)NC(=O)[C@H](CC2CCCCC2)NC(=O)[C@H](Cc2c[nH]c3ccccc23)NC1=O` [compound 215] (HELM PEPTIDE1{[ac].K.[Nle].W.[Cha].L.I.[Abu].A.W.D}$PEPTIDE1,PEPTIDE1,2:R3-11:R3$$$V2.0), the viability (commonly a read-out of living cells in per cent, often relative to untreated cells) in series [3] stood at 106%. In addition, the “β-Cat FP Hill slope” value at β-catenin was 1.69. Also, the IC50 in the series on mouse EMS lesion cells is over 30 µM. Besides, the concentration for a half-maximal effect (EC50) in series [2] is over 30 µM.

In the case of `CC[C@@H]1NC(=O)[C@H]([C@@H](C)CC)NC(=O)[C@H](CC(C)C)NC(=O)[C@H](C2CCCCC2)NC(=O)[C@H](Cc2c[nH]c3ccccc23)NC(=O)[C@@H](NC(C)=O)CCCCNC(=O)C[C@@H](C(=O)O)NC(=O)[C@H](Cc2c[nH]c3ccccc23)NC(=O)[C@H](C)NC1=O` [compound 262] (HELM PEPTIDE1{[ac].K.W.[O=C([C@@H](N[*:1])C1CCCCC1)[*:2]].L.I.[Abu].A.W.D}$PEPTIDE1,PEPTIDE1,2:R3-10:R3$$$V2.0), on β-catenin, the “β-Cat FP Hill slope” value is given as 3 and the Kd (as a rule, the concentration at which binding is half-saturated) fell in the range of 0.4 to 1 µM. For the same molecule, the IC50 in series [1] was 5 µM. The molecule also gave an IC50 with mouse EMS lesion cells of 26.3 µM.

Turning to `CC[C@@H]1NC(=O)[C@H]([C@@H](C)CC)NC(=O)[C@H](CC(C)C)NC(=O)[C@H](CC2CCCCC2)NC(=O)[C@H](Cc2c[nH]c3ccccc23)NC(=O)[C@@H](NC(C)=O)CCCCNC(=O)C[C@@H](C(=O)O)NC(=O)[C@H](Cc2c[nH]c3ccccc23)NC(=O)[C@H](C)NC1=O` [compound 261] (HELM PEPTIDE1{[ac].K.W.[Cha].L.I.[Abu].A.W.D}$PEPTIDE1,PEPTIDE1,2:R3-10:R3$$$V2.0), at β-catenin, the “β-Cat FP Hill slope” value is 3 and the Kd lay within 0.4 to 1 µM. This molecule came in with a half-inhibitory concentration (IC50) in series [1] of 4 µM. In the series with mouse EMS lesion cells, this molecule showed an IC50 of 7.7 µM. Moreover, in series [2], the EC50 was in the range of 7.5 to 15 µM.

In the case of `CC[C@H](C)[C@H](NC(=O)[C@H](CC(C)C)NC(=O)[C@H](Cc1ccccc1)NC(=O)[C@H](Cc1c[nH]c2ccccc12)NC(=O)[C@@H](N)CCSC)C(=O)N[C@@H](CS)C(=O)N[C@@H](Cc1ccccc1)C(=O)N[C@@H](Cc1c[nH]c2ccccc12)C(=O)NCC(=O)O` [compound 42] (H-MWFLICFWG-OH), on β-catenin, the “β-Cat FP Hill slope” value was determined as 0.96 and the Kd was under 0.4 µM. For the same molecule, the “% Viability non-Wnt responsive cells” value with non-Wnt responsive cells is reported as 108.69%. The EC50 in series [2] was under 7.5 µM.

Regarding `CCCCCCCCCCCC(=O)N[C@@H](Cc1c[nH]c2ccccc12)C(=O)N(C)[C@@H](C)C(=O)N[C@@H](CCC(N)=O)C(=O)N[C@H]1CCCCNC(=O)C[C@@H](C(=O)N[C@@H](Cc2c[nH]cn2)C(=O)N[C@H](C(=O)N[C@@H](CCC(N)=O)C(=O)N[C@@H](CCCNC(=N)N)C(=O)N[C@H](C(=O)N[C@@H](Cc2c[nH]c3ccccc23)C(=O)NCC(N)=O)C(C)C)C2CCCCC2)NC(=O)[C@H](CC(=O)O)NC(=O)[C@H](CC(C)C)NC(=O)[C@H]([C@@H](C)CC)NC1=O` [compound 432] (HELM PEPTIDE1{[CCCCCCCCCCCC(=O)[*:2]].W.[meA].Q.K.I.L.D.D.H.[O=C([C@@H](N[*:1])C1CCCCC1)[*:2]].Q.R.V.W.G.[am]}$PEPTIDE1,PEPTIDE1,5:R3-9:R3$$$V2.0), the Kd at β-catenin is under 0.4 µM. In addition, the results for the IC50 (in series [1]; in the series on mouse EMS lesion cells) were 14.9 µM and 0.8 µM, respectively.

Consider CGP049090, for which, in the series on EMS lesion, the EMS lesion progression entry is recorded as “successfully reversed”.

As for `CC[C@H](C)[C@H](NC(=O)[C@H](CC(C)C)NC(=O)[C@@H](NC(=O)[C@H](Cc1c[nH]c2ccccc12)NC(=O)[C@@H](N)CCSC)[C@@H](C)CC)C(=O)N[C@@H](CO)C(=O)N[C@@H](Cc1ccccc1)C(=O)N[C@@H](Cc1c[nH]c2ccccc12)C(=O)NCC(=O)O` [compound 43] (H-MWILISFWG-OH), on β-catenin, the “β-Cat FP Hill slope” value is on record as 0.92 and the Kd fell in the range of 0.4 to 1 µM. Besides, in the series on non-Wnt responsive cells, the “% Viability non-Wnt responsive cells” value came out at 98.97%. In series [2], the EC50 is under 7.5 µM.

For the molecule `O=C(Nc1ccc([N+](=O)[O-])cc1Cl)c1cc(Cl)ccc1O` [niclosamide], the EMS lesion progression entry in the series on EMS lesion is “successfully reversed”.

For the molecule `CCCCCCCCCCCCCCCCCC(=O)N[C@@H](Cc1c[nH]c2ccccc12)C(=O)N(C)[C@@H](Cc1c[nH]c2ccccc12)C(=O)N[C@@H](CCC(=O)O)C(=O)NC(C)(CO)C(=O)N[C@H](C(=O)N[C@@H](CC(C)C)C(=O)N[C@@H](CC(=O)O)C(=O)N[C@@H](CCC(=O)O)C(=O)N[C@@H](Cc1c[nH]cn1)C(=O)NC(C)(C(=O)N[C@@H](CCC(N)=O)C(=O)N[C@@H](CCCNC(=N)N)C(=O)N[C@H](C(=O)N[C@@H](Cc1c[nH]c2ccccc12)C(=O)O)C(C)C)C(C)C)[C@@H](C)CC` (single isomer, unassigned) [393/500], the Kd on β-catenin is over 30 µM. The IC50 in series [1] is 1.7 µM; in the series on mouse EMS lesion cells it was 5 µM.

For the molecule “Lauroyl-NH-W-NMeA-QK*ILDE*H-Chg-E*DVWK*-NH2 (WAQKILDEHGEDVWK; HELM PEPTIDE1{[CCCCCCCCCCCC(=O)[*:2]].W.[meA].Q.K.I.L.D.E.H.[O=C([C@@H](N[*:1])C1CCCCC1)[*:2]].E.D.V.W.K.[am]}$PEPTIDE1,PEPTIDE1,12:R3-16:R3|PEPTIDE1,PEPTIDE1,5:R3-9:R3$$$V2.0; SMILES CCCCCCCCCCCC(=O)N[C@@H](Cc1c[nH]c2ccccc12)C(=O)N(C)[C@@H](C)C(=O)N[C@@H](CCC(N)=O)C(=O)N[C@H]1CCCCNC(=O)CC[C@@H](C(=O)N[C@@H](Cc2c[nH]cn2)C(=O)N[C@H](C(=O)N[C@H]2CCC(=O)NCCCC[C@@H](C(N)=O)NC(=O)[C@H](Cc3c[nH]c4ccccc34)NC(=O)[C@H](C(C)C)NC(=O)[C@H](CC(=O)O)NC2=O)C2CCCCC2)NC(=O)[C@H](CC(=O)O)NC(=O)[C@H](CC(C)C)NC(=O)[C@H]([C@@H](C)CC)NC1=O; listed as Homo sapiens) [SEQ ID NO: 465]”, the “Cell growth / viability” value with mouse EMS lesion cells (mouse EMS lesion cells, peptide added daily 0.024-25 uM, 5 days) is given as “inhibited cell growth”.

The record behind these values is patent US12441768B2, “Compositions and methods for treating endometriosis” (EndoMet Biosciences, Inc., priority 2018, dated 2025).
